In patent US8173767B2, “Synthetic peptide vaccines for HIV: the CBD epitope as an effective immunogen to elicit broadly neutralizing antibodies against HIV” (Institut Pasteur, priority 2003, dated 2012):
Ends that are not written are not given here. * marks the point of attachment. Biotin = O=C1N[C@H]2[C@H](CS[C@H]2CCCCC(=O)*)N1

What was measured:
[1] = test system: rabbits (Fauves de Bourgogne); experiment: ELISA of sera from rabbit immunized with the C-20 peptide (plates coated with C-20); format: in vivo; conditions: rabbit Hermione; after the first 2 injections; serum dilution 1/2000
Experimental: A biotinylated C-20 peptide was synthesized as in Example 2. After synthesis the biotinylated C-20 peptide was solubilized in water containing 10% DMSO at a concentration of 2 mg/ml. 100 μg of this solution (corresponding to 50 μl) was mixed with 50 μg of streptavidin in 250 μl distilled water. This solution was then mixed with 250 μl of adjuvant; complete Freund's adjuvant (CFA) for the first injection and incomplete Freund's adjuvant (IFA) for the following injections. Rabbits (Fauves de Bourgogne) were injected intramuscularly with 500 μl of the antigen/adjuvant mixture. 10 ml of blood was collected from the rabbits before the first injection of antigen. This serum is referred to as S0 or pre-immune serum.
All sera were tested by ELISA using 2 types of plates (PVC and Maxisorp) coated with the C-20 peptide.

HeLa cells = experiment: Entry of the CBD-1 peptide into cells (confocal immunofluorescence microscopy); format: cell-based
Experimental: (§1) Several studies in laser scanning confocal immunofluorescence microscopy were conducted to investigate the interaction of the CBD-1 peptide with cells and its effect on Midkine. […] Midkine binds its low affinity receptor, surface-expressed nucleolin, before entry into cells by an active process in which lipid rafts appear to be implicated (34).
On intact cells, the CBD-1 peptide appeared to interact with caveolin at the plasma membrane.
HeLa cells in culture medium were incubated (45 min at 37° C.) with the biotinylated CBD-1 peptide (5 μM). Cells were then washed and fixed with paraformaldehyde/Triton X-100 solution. […] The secondary antibody was Texas Red dye-conjugated donkey anti-rabbit IgG (Jackson ImmunoResearch Laboratories, PA). Confocal microscopy was performed as described previously (6).

[2] = test system: rabbits (Fauves de Bourgogne); experiment: ELISA of sera from rabbit immunized with the CBD-1 peptide (plates coated with CBD-1); format: in vivo
Experimental: The biotinylated CBD-1 peptide was solubilized in water containing 10% DMSO at a concentration of 2 mg/ml. 100 μg of this solution (50 μl) was mixed with 50 μg of streptavidin in 250 μl of distilled water. This solution was then mixed with 250 μl of complete Freund's adjuvant (CFA) for the first injection and incomplete Freund's adjuvant (IFA) for the following injections. 10 ml of blood was collected from the rabbits before the first injection of antigen; this serum was referred to as S0 or pre-immune serum.
The rabbits (Fauves de Bourgogne) were injected intramuscularly with 500 μl of the antigen/adjuvant mixture. The following Table 1 presents the injection and bleeding dates of the rabbit named “Aldernay”:
All sera were tested by ELISA using 2 types of plates (PVC and Maxisorp) coated with the CBD-1 peptide. The optical density (OD) was measured at 450 nm. An OD value above 0.20 was considered positive.

Midkine = experiment: Effect of the CBD-1 peptide on Midkine binding and entry into cells (confocal microscopy); format: cell-based
Experimental: as §1

caveolin = biological target: T1, caveolin (Homo sapiens, UniProt Q03135); experiment: Binding of biotinylated CBD-1 to caveolin in crude MT4 cell extracts (avidine-sepharose, immunoblot)
T1 construct: endogenous in cells
T1 sequence (Q03135 1-178): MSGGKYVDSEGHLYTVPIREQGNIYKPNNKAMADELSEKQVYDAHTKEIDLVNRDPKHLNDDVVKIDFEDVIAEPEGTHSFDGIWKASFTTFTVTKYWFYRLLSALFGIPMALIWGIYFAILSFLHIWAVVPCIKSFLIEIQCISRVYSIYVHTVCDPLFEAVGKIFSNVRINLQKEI
Experimental: MT4 cells were extracted in buffer containing 10 mM Hepes, pH 7.6, 50 mM KCl, 400 mM NaCl, 1 mM EDTA, protease inhibitor cocktail and 1% Triton X-100®. Extracts were centrifuged at 12,000×g and the supernatants were stored at […]. 100 μl of cell extracts were first diluted with 400 μl of homogenization buffer and left at 4° C. for 10 minutes before centrifuging at 12,000×g.
The diluted supernatants were then incubated at 4° C. in the presence of 0, 2, 5, 10 and 20 μM of the biotinylated CBD-1 peptide. After 90 minutes, 100 μl of avidine-sepharose were added in each sample and the samples were further incubated at 4° C. for 2 hours with gentle shaking. The samples were then washed extensively with PBS and proteins bound to avidine-sepharose were eluted in 100 μl of electrophoresis sample buffer containing SDS and analyzed by SDS-PAGE (using a 12.5% polyacrylamide gel) for immunoblotting with rabbit anti-caveolin 1 antibodies ([…]) as previously described (6).
Cell extracts were first incubated with 50 μM of CBD-1 (+) or without CBD-1 (−) before the addition of 10 μM biotinylated CBD-1 and further processed as above. Lane E represents the analysis of crude cell extracts diluted 1-fold in the electrophoresis sample buffer. […]

DGIWKASFTTFTVTKYWFYR (DGIWKASFTTFTVTKYWFYR) [C-20 peptide]
antibodies against C-20 in serum (ELISA) [1]: significant amount of antibodies against C-20

L-E-Q-I-W-N-N-M-T-W-M-Q-W-D-K (LEQIWNNMTWMQWDK) [CBD-1 peptide]
entry of the peptide into cells (HeLa cells; dependence on incubation temperature): occurred at 37 °C but not at 20 °C | antibodies against CBD-1 in serum (ELISA) ([2]; after the first 3 injections, serum dilution 1/2,000): significant amount of antibodies against CBD-1 | immunogenicity of the peptide (anti-CBD-1 antibodies in serum, ELISA) ([2]; rabbit Aldernay, intramuscular, biotinylated peptide with streptavidin in CFA/IFA, OD 450 nm above 0.20 positive): immunogenic | Midkine binding to cells (Midkine): without affecting Midkine binding to cells | entry of Midkine into cells (Midkine): blocks entry of Midkine into cells

biotinylated CBD-1: CBD-1 peptide with a biotinyl moiety coupled at the N terminus (Biotin-LEQIWNNMTWMQWDK)
localization of the peptide in cells (HeLa cells; HeLa cells, 5 μM, 45 min at 37° C.): localized in the cytoplasm | caveolin purified from crude extracts with the biotinylated peptide (caveolin; 0, 2, 5, 10 and 20 μM biotinylated CBD-1, 4° C.): in a dose dependent manner | capacity to bind caveolin in the presence of excess CBD-1 (caveolin; 50 μM CBD-1 before 10 μM biotinylated CBD-1): reduced capacity
